In the CheMixHub viscosity set:

Assay: xn = mol fraction of the nth substance listed

CCCCCCCCCCCCCC + CCCCCCCCCCCCCCCC
293.15 K, 101.33 kPa
Conditions | viscosity [mPa·s]
x1 = 0.276 | 3.067
x1 = 0.533 | 2.789
x1 = 0.773 | 2.529

O=[N+]([O-])c1ccccc1 + CCCCOC(C)=O
viscosity [mPa·s], 101 kPa
Conditions | 298.15 K | 308.15 K
x2 = 0.0477 | 1.576 | 1.399
x2 = 0.151 | 1.23 | 1.152
x2 = 0.2493 | 1.006 | 0.979
x2 = 0.35 | 0.848 | 0.849
x2 = 0.4488 | 0.743 | 0.755
x2 = 0.5 | 0.704 | 0.717
x2 = 0.5514 | 0.672 | 0.685
x2 = 0.6512 | 0.632 | 0.637
x2 = 0.7484 | 0.616 | 0.607
x2 = 0.8504 | 0.622 | 0.591
x2 = 0.9435 | 0.648 | 0.589

COCC(C)O (configuration not stated) + CCO
viscosity [mPa·s], 101.33 kPa
Conditions | 298.15 K | 308.15 K | 318.15 K
x1 = 0.0501 | 1.128 | 0.933 | 0.779
x1 = 0.1 | 1.174 | 0.964 | 0.801
x1 = 0.15 | 1.215 | 0.994 | 0.822
x1 = 0.2 | 1.253 | 1.025 | 0.846
x1 = 0.25 | 1.297 | 1.055 | 0.866
x1 = 0.3003 | 1.333 | 1.081 | 0.887
x1 = 0.35 | 1.369 | 1.111 | 0.909
x1 = 0.3999 | 1.405 | 1.138 | 0.928
x1 = 0.45 | 1.44 | 1.163 | 0.947
x1 = 0.5 | 1.477 | 1.188 | 0.964
x1 = 0.5498 | 1.508 | 1.211 | 0.979
x1 = 0.5998 | 1.537 | 1.23 | 0.991
x1 = 0.6498 | 1.564 | 1.245 | 1.004
x1 = 0.7 | 1.589 | 1.263 | 1.017
x1 = 0.75 | 1.61 | 1.275 | 1.029
x1 = 0.8002 | 1.629 | 1.289 | 1.038
x1 = 0.8498 | 1.647 | 1.3 | 1.048
x1 = 0.8999 | 1.665 | 1.308 | 1.058
x1 = 0.9499 | 1.677 | 1.318 | 1.068
